Laboratory results as given in patent publication US10662218B2, “Analogs of celastrol” (ERX Pharmaceuticals, Inc., priority 2015, dated 2020).
≈ marks a conversion by molar mass, not a printed value. Where “and” joins values, the source holds several entries; their conditions need not be identical. Equal entries are not always repeated. Entries after “also recorded” stand apart in the source; their conditions may differ. Where two headings read alike, the source gives them in different places.

Columns and labels:
[1] = Compound solubility in PBS (pH 7.4), LC-MS/MS; conditions: PBS (pH 7.4), pH 7.4, aqueous buffer, kinetic from dmso stock, Solubility (μM) Mean, Table 6-C, test concentration 100 μM (1% of DMSO), shaken (1000 rpm) 1 h at room temperature, n = 2
Protocol: • Test concentration: 100 μM (1% of DMSO) • Test systems: PBS (pH 7.4) • Incubation condition: shaken (1000 rpm) for 1 h at room temperature • Sample size: Duplicates (n=2) • Bioanalytical method: LC-MS/MS

[2] = system: C57BL/6 Diet Induced Obese (DIO) mice; assay: Oral (P.O.) administration study in DIO mice: in vivo activity, body weights; parameters: species or system mouse; conditions: for area under the curve (AUC) for cumulative body weight change / area under the curve (AUC) for daily body weight change / cumulative body weight change: 2 mg/kg oral gavage once daily for 10 days, compared with controls; for Individual Body Weight: individual male animals; for Body weight, Mean / change in vivo at 2 mg/kg: male; for change in vivo at 2 mg/kg: Mus musculus, po, read-out: Body weight, %-Diff; for Individual Body Weight, DSNG 1: dosing phase day 1; for Individual Body Weight, DSNG 2: dosing phase day 2; for Individual Body Weight, PRED 11: pre-dose phase day 11 (baseline); for Individual Body Weight, PRED 12: pre-dose phase day 12 (baseline); for Individual Body Weight, PRED 13: pre-dose phase day 13 (baseline); for Individual Body Weight, PRED 14: pre-dose phase day 14 (baseline)
How it was run: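 Male C57BL/6 DIO mice (21-22 weeks, 29.8-40.1 g) were gavage-acclimated with vehicle, then dosed orally once daily for 10 days at 2 mL/kg. Body weight was recorded daily before dosing. Cumulative change and AUC were analysed by one-way ANOVA with Dunnett's test.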

[3] = system: C57BL/6 Diet Induced Obese (DIO) mice; assay: Oral (P.O.) administration study in DIO mice: food consumption; format: in vivo, mouse; conditions: 2 mg/kg oral gavage once daily for 10 days, compared with controls
Protocol: (§1) Dose formulations were administered by oral gavage once daily for 10 days at a dose volume of 2 mL/kg. Doses were based on the most recently recorded scheduled body weight.
A quantitative assessment of food consumption was recorded daily on Days 11 through 14 of the predose phase and daily prior to dosing during the dosing phase.
(§2) Descriptive statistics (n, mean, standard error of the mean, standard deviation) were completed. Additionally, one-way analysis of variance followed by Dunnett's post-hoc test were performed on body weight (cumulative body weight change), glucose (glucose percent change), and food consumption (cumulative food consumption). Area under the curve (for body weight, cumulative body weight change, daily body weight change, and food consumption) was computed for treatment groups. An appropriate comparison test, such as one-way analysis of variance and Dunnett's, was performed on the group means for the area under the curve computations. Any additional statistical analysis and interpretation of the results were the responsibility of the sponsor.

[4] = system: C57BL/6 Diet Induced Obese (DIO) mice; assay: Oral (P.O.) administration study in DIO mice: blood glucose level after 6 hours of fasting; format: in vivo, mouse; conditions: 2 mg/kg oral gavage once daily for 10 days, compared with controls
Protocol: as §1
Blood for blood glucose was collected from all animals via tail clip on Day 14 of the predose phase, and Day 11 of the dosing phase after 6 hours of fasting. A drop of blood from each animal was placed onto two different Accu-Chek® Aviva glucometers to assess glucose values. A third value was taken, if necessary.
as §2

[5] = system: C57BL/6 Diet Induced Obese (DIO) mice; assay: Oral (P.O.) administration study in DIO mice: animal fate (mortality) and clinical observations; conditions: individual male DIO mouse, 2 mg/kg; phase of fate Dosing, phase week 2, phase day 11
How it was run: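 Male C57BL/6 DIO mice received 2 mg/kg of each compound by oral gavage once daily for 10 days; vehicle was 1% methyl cellulose in citric acid/phosphate buffer. Mortality and clinical signs recorded alongside body weight, food intake and blood glucose; animals sacrificed Day 11.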

[6] = in vivo
[7] = individual male DIO mouse, 2 mg/kg, 2 mg/kg
[8] = individual male DIO mouse, group dosed 2 mg/kg, 2 mg/kg
[9] = individual male DIO mouse of the 2 mg/kg group

Question: Which solubility at 1 h [1] does the source give for `CC(=O)N[C@]1(C)CC[C@]2(C)CC[C@]3(C)C4=CC=C5C(=CC(=O)C(O)=C5C)[C@]4(C)CC[C@@]3(C)[C@@H]2C1` [ERX1168] here?
Answer: The solubility at 1 h was 5.05 µM (≈ 2.34 µg/mL).

Question: What about the “area under the curve (AUC) for cumulative body weight change” value [2] of the same compound?
Answer: Its value is “statistically significant decreases”.

Question: What about the “area under the curve (AUC) for daily body weight change” value [2] of the same compound?
Answer: Its value is “statistically significant decreases”.

Question: What about the “cumulative body weight change” value [2] of the same compound?
Answer: Its value is “statistically significant decreases”.

Question: And the “Individual Body Weight” value ([2]; 2 mg/kg, Phase Day DSNG 3)?
Answer: The value was 30.7 g and 37.3 g and 34.4 g and 30.5 g and 28.3 g.

Question: What about the “Individual Body Weight” value ([2]; 2 mg/kg, Phase Day DSNG 4) of the same compound?
Answer: Its value is 30.0 g and 37.5 g and 34.2 g and 29.1 g and 28.9 g.

Question: What about the “Individual Body Weight” value ([2]; 2 mg/kg, Phase Day DSNG 5) of the same compound?
Answer: The value was 29.2 g and 36.1 g and 33.2 g and 28.8 g and 28.0 g.

Question: And the “Individual Body Weight” value ([2]; 2 mg/kg, Phase Day DSNG 6)?
Answer: Its value is 28.4 g and 33.9 g and 31.6 g and 27.0 g and 26.7 g.

Question: What about the “Individual Body Weight” value ([2]; 2 mg/kg, Phase Day DSNG 7) of the same compound?
Answer: The value was 28.9 g and 32.3 g and 30.7 g and 27.0 g and 27.3 g.

Question: And the “Individual Body Weight” value ([2]; 2 mg/kg, Phase Day DSNG 8)?
Answer: The value was 28.7 g and 32.7 g and 29.5 g and 27.7 g and 26.9 g.

Question: What about the “Body weight, Mean” value ([2]; DIO mice, 2 mg/kg, phase DSNG, Day 7) of the same compound?
Answer: Its value is 29.2 g.

Question: And the “Body weight, Mean” value ([2]; DIO mice, 2 mg/kg, phase DSNG, Day 8)?
Answer: The value was 29.1 g.

Question: And the “Body weight, Mean” value ([2]; DIO mice, 2 mg/kg, phase DSNG, Day 9)?
Answer: The value was 30.0 g.

Question: What about the “Body weight, Mean” value ([2]; DIO mice, 2 mg/kg, phase DSNG, Day 10) of the same compound?
Answer: Its value is 29.2 g.

Question: And the “Body weight, Mean” value ([2]; DIO mice, 2 mg/kg, phase DSNG, Day 11)?
Answer: The value was 29.2 g.

Question: What about the “Body weight, Mean” value ([2]; Day 1, DSNG phase, 2 mg/kg, N=5) of the same compound?
Answer: The value was 34.5 g.

Question: What about the “Body weight, Mean” value ([2]; Day 2, DSNG phase, 2 mg/kg, N=5) of the same compound?
Answer: The value was 34.0 g.

Question: And the “Body weight, Mean” value ([2]; Day 3, DSNG phase, 2 mg/kg, N=5)?
Answer: The value was 32.2 g.

Question: And the “Body weight, Mean” value ([2]; Day 4, DSNG phase, 2 mg/kg, N=5)?
Answer: The value was 31.9 g.

Question: What about the “Body weight, Mean” value ([2]; Day 5, DSNG phase, 2 mg/kg, N=5) of the same compound?
Answer: The value was 31.1 g.

Question: What about the “Body weight, Mean” value ([2]; Day 6, DSNG phase, 2 mg/kg, N=5) of the same compound?
Answer: Its value is 29.5 g.

Question: What about the change in vivo at 2 mg/kg ([2]; 24 h, Day 1, DSNG phase, 2 mg/kg, difference of group mean) of the same compound?
Answer: The change in vivo at 2 mg/kg was 1%.

Question: And the change in vivo at 2 mg/kg ([2]; 48 h, Day 2, DSNG phase, 2 mg/kg, difference of group mean)?
Answer: Its change in vivo at 2 mg/kg is -1%.

Question: And the change in vivo at 2 mg/kg ([2]; 72 h, Day 3, DSNG phase, 2 mg/kg, difference of group mean)?
Answer: The change in vivo at 2 mg/kg was -5%.

Question: What about the change in vivo at 2 mg/kg ([2]; 96 h, Day 4, DSNG phase, 2 mg/kg, difference of group mean) of the same compound?
Answer: The change in vivo at 2 mg/kg was -4%.

Question: What about the change in vivo at 2 mg/kg ([2]; 120 h, Day 5, DSNG phase, 2 mg/kg, difference of group mean) of the same compound?
Answer: Its change in vivo at 2 mg/kg is -8%.

Question: What about the change in vivo at 2 mg/kg ([2]; 144 h, Day 6, DSNG phase, 2 mg/kg, difference of group mean) of the same compound?
Answer: The change in vivo at 2 mg/kg was -12%.

Question: And the change in vivo at 2 mg/kg ([2]; 168 h, DIO mice, 2 mg/kg, phase DSNG, Day 7, difference of group mean from vehicle group 1)?
Answer: The change in vivo at 2 mg/kg was -13%.

Question: What about the change in vivo at 2 mg/kg ([2]; 192 h, DIO mice, 2 mg/kg, phase DSNG, Day 8, difference of group mean from vehicle group 1) of the same compound?
Answer: Its change in vivo at 2 mg/kg is -14%.

Question: And the change in vivo at 2 mg/kg ([2]; 216 h, DIO mice, 2 mg/kg, phase DSNG, Day 9, difference of group mean from vehicle group 1)?
Answer: Its change in vivo at 2 mg/kg is -10%.

Question: What about the change in vivo at 2 mg/kg ([2]; 240 h, DIO mice, 2 mg/kg, phase DSNG, Day 10, difference of group mean from vehicle group 1) of the same compound?
Answer: Its change in vivo at 2 mg/kg is -13%.

Question: What about the change in vivo at 2 mg/kg ([2]; 264 h, DIO mice, 2 mg/kg, phase DSNG, Day 11, difference of group mean from vehicle group 1) of the same compound?
Answer: The change in vivo at 2 mg/kg was -14%.

Question: And the “Individual Body Weight, DSNG 1” value [2, 7]?
Answer: The value was 33.1 g and 39.5 g and 36.9 g and 31.9 g and 31.1 g.

Question: What about the “Individual Body Weight, DSNG 2” value [2, 7] of the same compound?
Answer: Its value is 32.5 g and 40.4 g and 36.2 g and 31.2 g and 29.9 g.

Question: What about the “Individual Body Weight, PRED 11” value [2, 8] of the same compound?
Answer: Its value is 35.6 g and 39.3 g and 37.3 g and 35.3 g and 33.0 g.

Question: What about the “Individual Body Weight, PRED 12” value [2, 8] of the same compound?
Answer: The value was 35.2 g and 40.3 g and 37.2 g and 33.1 g and 31.0 g.

Question: And the “Individual Body Weight, PRED 13” value [2, 8]?
Answer: Its value is 35.0 g and 40.4 g and 37.2 g and 32.5 g and 30.6 g.

Question: And the “Individual Body Weight, PRED 14” value [2, 8]?
Answer: The value was 35.1 g and 41.2 g and 37.5 g and 33.3 g and 32.1 g.

Question: And the “area under the curve (AUC) for cumulative food intake” value [3]?
Answer: Its value is “statistically significant decreases”.

Question: And the cumulative food intake [3]?
Answer: Its cumulative food intake is “statistically significant decreases”.

Question: What about the “glucose value percent change” value [4] of the same compound?
Answer: The value was “Statistically significant changes; also recorded: statistically significant decreases”.

Question: And the “Individual Animal Fate: Fate Status” value [5]?
Answer: The value was “Scheduled Sacrifice”.

Question: With `Cc1c(O)c(O)cc2c1C(=O)C=C1[C@@]2(C)CC[C@@]2(C)[C@@H]3C[C@](C)(C(=O)O)CC[C@]3(C)CC[C@]12C` [ERX1030] as the compound, how does the Oral bioavailability [6] read?
Answer: The Oral bioavailability was “−”.

Question: For `CC1=C(O)C(=O)C=C2C1=CC=C1[C@@]2(C)CC[C@@]2(C)[C@@H]3C[C@](C)(C(=O)O)CC[C@]3(C)CC[C@]12C` [ERX1000-4, Celastrol], which “area under the curve (AUC) for cumulative body weight change” value [2] is on record?
Answer: The value was “statistically significant decreases”.

Question: And the “area under the curve (AUC) for daily body weight change” value [2]?
Answer: The value was “statistically significant decreases”.

Question: And the “cumulative body weight change” value [2]?
Answer: The value was “statistically significant decreases”.

Question: What about the “Individual Body Weight, PRED 11” value [2, 9] of the same compound?
Answer: Its value is 35.9 g and 35.1 g and 37.3 g and 34.5 g and 37.5 g.

Question: And the “Individual Body Weight, PRED 12” value [2, 9]?
Answer: Its value is 35.2 g and 33.5 g and 37.4 g and 35.5 g and 37.3 g.

Question: What about the “Individual Body Weight, PRED 13” value [2, 9] of the same compound?
Answer: Its value is 35.1 g and 32.5 g and 37.7 g and 34.0 g and 36.0 g.

Question: And the “Individual Body Weight, PRED 14” value [2, 9]?
Answer: The value was 35.5 g and 32.9 g and 37.9 g and 34.6 g and 37.2 g.

Question: And the “Individual Body Weight, DSNG 1” value [2, 7]?
Answer: The value was 34.6 g and 30.8 g and 37.0 g and 33.5 g and 34.9 g.

Question: What about the “Individual Body Weight, DSNG 2” value [2, 7] of the same compound?
Answer: Its value is 34.4 g and 30.8 g and 36.4 g and 33.5 g and 35.0 g.

Question: And the cumulative food intake [3]?
Answer: Its cumulative food intake is “statistically significant decreases”.

Question: And the “glucose value percent change” value [4]?
Answer: The value was “Statistically significant changes; also recorded: statistically significant decreases”.
